In patent US20260184706A1, “PHENYLSULFONAMIDE DERIVATIVES, PREPARATION METHOD THEREFOR, AND PHARMACEUTICAL COMPOSITION FOR PREVENTION OR TREATMENT OF CANCER CONTAINING SAME AS ACTIVE INGREDIENT” (Korea Research Institute of Chemical Technology, priority 2022, published 2026):

Columns and labels:
[1] = molecular target: recombinant human HRI protein (Homo sapiens, UniProt Q9BQI3); assay: eIF2-alpha kinase heme-regulated inhibitor (HRI) inhibitory capacity, 33P-ATP filter assay; format: biochemical; conditions: 45 uM [gamma-33P-ATP], 40 minutes, room temperature
Experimental: <Experimental Example 3> Evaluation of eIF2-Alpha Kinase Heme-Regulated Inhibitor (HRI) Inhibitory Capacity
A recombinant human HRI protein was mixed with the compound in a reaction solution (50 mM Tris/HCl pH 7.5, 0.04 mM EDTA, 300 uM RSRSRSRSRSRSRSR, 10 mM Magnesium acetate, 45 uM [gamma-33P-ATP]) and reacted at room temperature for 40 minutes. Then, the reaction was terminated by adding phosphoric acid (0.5%) to the reaction mixture, and […] of the reaction solution was dropped onto a P30 filter. The filter was washed four times in a 0.425% phosphoric acid solution for 4 minutes, then […] washed once more in methanol, dried, and the HRI activity was measured by scintillation counting. […] The compound was diluted by 1/3 from the highest concentration of 1 uM and treated with a total of 9 concentrations to evaluate the degree of inhibition.

[2] = molecular target: recombinant human GCN2 protein (Homo sapiens, UniProt Q9P2K8); assay: General control nonderepressible 2 (GCN2) inhibitory capacity, 33P-ATP filter assay; format: biochemical; conditions: recombinant human GCN2, 70 uM [gamma-33P-ATP], 40 minutes, room temperature
[3] = molecular target: T1, phosphorylated GCN2 (Homo sapiens, UniProt Q9P2K8); assay: Inhibition of phosphorylated GCN2 under amino acid deficiency in HT-1080 cells, Western blot; format: cell-based; conditions: compound 50 nM, 24 hours; for Phospho-GCN2 inhibition: symbols ◯ / X not defined
T1 construct: endogenous in cells; host or cells: HT-1080
Experimental: <Experimental Example 5> Evaluation of Inhibitory Efficacy of ISR-Related Kinase GCN2 Under Amino Acid Deficiency Condition Using Western Blot
HT-1080 cells, a human fibrosarcoma cell line, were cultured in RPMI-1640 medium supplemented with 10% FBS, penicillin (penicillin; 100 IU/ml), and streptomycin (streptomycin; 100 μg/ml). Cells (1×10^6 cells/ml) were seeded onto 100 mm plates (polypropylene tissue culture plate) and incubated for 24 hours in a 37° C., 5% CO2 incubator before being used for experiments.
The following method was used to achieve amino acid deficiency conditions in cells. After 24 hours of cell culture, the cells were cultured in amino acids and L-glutamine-free RPMI-1640 medium supplemented with 10% FBS, penicillin (100 IU/ml), and streptomycin (100 μg/ml). After 24 hours of cell culture in RPMI-1640 without amino acids and L-glutamine, the compound prepared at a concentration of 50 nM was dispensed onto each plate and cultured for 24 hours in a 37° C., 5% CO2 incubator.
In order to measure the signal transduction inhibitory efficacy of GCN among the ISR-related kinases according to the present invention, the following experiment was performed using SDS-PAGE. The fibrosarcoma cell line HT-1080 cells cultured on plates as described above were washed with PBS after removing the culture medium. After removing PBS, the cells were lysed by adding a radio-immunoprecipitation assay buffer (RIPA buffer) containing 50 mM Tris (pH 7.4), 150 mM NaCl, 1% NP-40, 0.5% sodium deoxycholate, 2 mM sodium fluoride, 2 mM EDTA, 0.1% SDS, and a protease/phosphatase inhibitor cocktail to the plate. After centrifugation at 4° C., 13,000×g for 15 minutes, the protein in the upper layer was collected, and the protein concentration was measured at 562 nm using BCA (bicinchoninc acid) reagent, and the amount of protein in all samples was prepared at 20-50 μg.
After making the total volume the same using the sample buffer and RIPA buffer, it was heated at 97° C. for 5 minutes. Then, electrophoresis was performed on 8% or 12% SDS-PAGE at 80 V for 30 minutes and at 160 V for 1 hour and 30 minutes. After electrophoresis, the SDS-PAGE gel was transferred to an NC membrane (nitrocellulose membrane) at 90 V for 2 hours. The NC membrane was placed in TBST (tris buffer saline tween-20; 20 mM tris, 137 mM sodium chloride, 0.1% tween-20, pH 8.0) containing 5% non-fat skim milk, placed on a shaker, and reacted at room temperature for 1 hour.
Each primary antibody was diluted in TBST containing 5% non-fat skim milk, poured onto the NC membrane, and reacted at 4° C. for 24 hours. The membrane was washed three times for 10 minutes each with TBST. The secondary antibodies (anti-rabbit IgG and anti-mouse IgG labeled with horseradish peroxidase (HRP)) were diluted in TBST containing 5% non-fat skim milk and reacted with the membrane at room temperature for 1 hour. Upon completion of the reaction, the membrane was washed three times with TBST for 10 minutes each. Protein expression bands were detected by a chemiluminescence image analyzer (Image Quant LAS 500) after the ECL solution was reacted with the NC membrane.
GCN2, a key kinase of the integrated stress response (ISR), is phosphorylated in response to amino acid deficiency.

Chain of recombinant human HRI protein (Q9BQI3 whole entry): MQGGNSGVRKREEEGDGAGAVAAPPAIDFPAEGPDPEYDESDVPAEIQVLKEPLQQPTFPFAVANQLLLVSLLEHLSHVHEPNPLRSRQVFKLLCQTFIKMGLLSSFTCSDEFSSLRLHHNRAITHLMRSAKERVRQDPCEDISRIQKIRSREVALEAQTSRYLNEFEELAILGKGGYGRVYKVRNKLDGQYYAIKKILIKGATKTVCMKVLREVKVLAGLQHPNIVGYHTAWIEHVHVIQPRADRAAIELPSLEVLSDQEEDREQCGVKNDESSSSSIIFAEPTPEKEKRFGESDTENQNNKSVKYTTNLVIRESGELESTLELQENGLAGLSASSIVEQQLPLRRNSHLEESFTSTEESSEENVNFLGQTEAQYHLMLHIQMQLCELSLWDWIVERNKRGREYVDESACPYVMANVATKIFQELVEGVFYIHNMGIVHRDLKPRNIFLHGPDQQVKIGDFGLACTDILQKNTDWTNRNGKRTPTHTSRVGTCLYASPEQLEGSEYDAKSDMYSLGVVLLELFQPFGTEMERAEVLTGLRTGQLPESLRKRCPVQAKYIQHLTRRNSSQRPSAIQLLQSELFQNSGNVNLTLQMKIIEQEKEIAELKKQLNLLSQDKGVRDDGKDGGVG
Chain of recombinant human GCN2 protein (Q9P2K8 whole entry): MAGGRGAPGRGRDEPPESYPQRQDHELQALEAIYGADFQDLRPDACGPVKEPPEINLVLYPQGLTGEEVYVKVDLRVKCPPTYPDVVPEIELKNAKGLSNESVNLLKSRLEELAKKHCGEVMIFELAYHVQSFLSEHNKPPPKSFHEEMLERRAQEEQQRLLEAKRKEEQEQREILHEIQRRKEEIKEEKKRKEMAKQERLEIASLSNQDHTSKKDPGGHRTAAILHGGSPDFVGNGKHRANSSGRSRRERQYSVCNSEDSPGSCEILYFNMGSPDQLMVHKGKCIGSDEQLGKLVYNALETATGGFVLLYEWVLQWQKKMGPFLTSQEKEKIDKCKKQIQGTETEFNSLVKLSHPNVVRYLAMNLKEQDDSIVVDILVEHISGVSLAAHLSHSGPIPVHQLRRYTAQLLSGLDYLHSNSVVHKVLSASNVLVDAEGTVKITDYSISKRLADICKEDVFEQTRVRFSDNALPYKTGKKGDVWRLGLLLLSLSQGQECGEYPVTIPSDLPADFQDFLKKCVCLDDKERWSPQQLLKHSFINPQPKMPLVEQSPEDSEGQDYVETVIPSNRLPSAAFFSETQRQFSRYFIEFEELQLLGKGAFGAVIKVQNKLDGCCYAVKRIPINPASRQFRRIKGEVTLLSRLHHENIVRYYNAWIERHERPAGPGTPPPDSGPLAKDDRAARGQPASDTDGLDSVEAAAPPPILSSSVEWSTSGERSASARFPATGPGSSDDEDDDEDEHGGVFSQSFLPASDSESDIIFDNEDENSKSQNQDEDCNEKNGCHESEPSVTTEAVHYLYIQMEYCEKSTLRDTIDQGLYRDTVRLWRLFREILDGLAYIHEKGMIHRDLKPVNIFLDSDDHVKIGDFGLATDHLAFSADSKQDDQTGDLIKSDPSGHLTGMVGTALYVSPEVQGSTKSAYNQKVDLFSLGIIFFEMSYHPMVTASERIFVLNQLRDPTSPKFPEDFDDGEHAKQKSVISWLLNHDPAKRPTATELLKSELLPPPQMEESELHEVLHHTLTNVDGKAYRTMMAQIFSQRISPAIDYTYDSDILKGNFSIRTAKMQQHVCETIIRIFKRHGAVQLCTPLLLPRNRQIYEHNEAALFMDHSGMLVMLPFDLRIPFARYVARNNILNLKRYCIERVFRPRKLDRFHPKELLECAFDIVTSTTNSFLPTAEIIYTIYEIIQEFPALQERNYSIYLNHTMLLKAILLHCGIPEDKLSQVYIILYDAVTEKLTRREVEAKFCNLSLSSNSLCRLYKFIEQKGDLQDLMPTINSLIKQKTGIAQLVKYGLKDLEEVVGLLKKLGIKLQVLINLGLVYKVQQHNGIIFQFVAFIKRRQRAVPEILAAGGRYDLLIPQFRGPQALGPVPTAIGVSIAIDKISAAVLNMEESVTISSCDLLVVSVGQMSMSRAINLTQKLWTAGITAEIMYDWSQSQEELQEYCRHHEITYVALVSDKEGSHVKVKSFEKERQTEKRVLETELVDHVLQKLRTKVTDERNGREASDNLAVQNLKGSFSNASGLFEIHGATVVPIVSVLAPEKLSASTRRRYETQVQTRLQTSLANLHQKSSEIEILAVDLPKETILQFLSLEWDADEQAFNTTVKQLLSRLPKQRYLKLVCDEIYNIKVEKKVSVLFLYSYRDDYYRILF
T1 sequence (Q9P2K8 whole entry): as above

IC50 [1] | IC50 [2] | inhibitory effect on the phosphorylated GCN2 [3] | Phospho-GCN2 inhibition [3] | SMILES
< 100 nM | < 100 nM | excellent inhibitory effects | ◯ | COc1ncc(Cl)cc1S(=O)(=O)Nc1ccc(F)c(-n2cc(C(F)F)c3nc(N)ncc3c2=O)c1F [Example 22, N-(3-(2-amino-8-(difluoromethyl)-5-oxopirido[4,3-d]pyrimidin-6(5H)-yl)-2,4-difluorophenyl)-5-chloro-2-methoxypyridine-3-sulfonamide]
< 100 nM | < 100 nM | excellent inhibitory effect | ◯ | Nc1ncc2c(=O)n(-c3c(F)ccc(NS(=O)(=O)c4cc(Cl)cnc4Cl)c3F)ccc2n1 [Example 27, N-(3-(2-amino-5-oxopirido[4,3-d]pyrimidin-6(5H)-yl)-2,4-difluorophenyl)-2,5-dichloropyridine-3-sulfonamide]
< 100 nM | < 100 nM | excellent inhibitory effects | ◯ | Nc1ncc2c(=O)n(-c3c(F)ccc(NS(=O)(=O)c4cccc5ccccc45)c3F)ccc2n1 [Example 29, N-(3-(2-amino-5-oxopirido[4,3-d]pyrimidin-6(5H)-yl)-2,4-difluorophenyl)naphthalene-1-sulfonamide]
< 100 nM | < 100 nM | excellent inhibitory effect | ◯ | CNc1ncc2c(=O)n(-c3c(F)ccc(NS(=O)(=O)c4cc(Cl)cnc4OC)c3F)ccc2n1 [Example 32, 5-chloro-N-(2,4-difluoro-3-(2-(methylamino)-5-oxopirido[4,3-d]pyrimidin-6(5H)-yl)phenyl)-2-methoxypyridine-3-sulfonamide]
< 100 nM | 100 to 300 nM | excellent inhibitory effects | ◯ | COc1ncc(Cl)cc1S(=O)(=O)Nc1ccc(F)c(-n2c(=O)c3cnc(N)nc3n(C)c2=O)c1F [Example 44, N-(3-(7-amino-1-methyl-2,4-dioxo-1,4-dihydropyrimido[4,5-d]pyrimidin-3(2H)-yl)-2,4-difluorophenyl)-5-chloro-2-methoxypyridine-3-sulfonamide]
100 to 300 nM | < 100 nM | excellent inhibitory effects | ◯ | COc1ncc(Br)cc1S(=O)(=O)Nc1ccc(F)c(-n2c(=O)c3cnc(N)nc3n(C)c2=O)c1F [Example 46, N-(3-(7-amino-1-methyl-2,4-dioxo-1,4-dihydropyrimido[4,5-d]pyrimidin-3(2H)-yl)-2,4-difluorophenyl)-5-bromo-2-methoxypyridine-3-sulfonamide]
